Reference: patent US9212205B2, “Nucleic acid binding compounds and methods of use” (University of Rochester, priority 2007, dated 2015)
Where two headings read alike, the source gives them in different places.

Assays:
[1] = biological target: (CUG)109 RNA (SEQ ID NO:8)-MBNL1 protein interaction; assay: Enzyme Fragmentation Complementation (EFC) assay of (CUG)109-MBNL1 binding inhibition; type: biochemical
Protocol: Small molecule-mediated inhibition of (CUG)109-MBNL1 binding was determined using an Enzyme Fragmentation Complementation (EFC) assay (Eglen et al., “β-Galactosidase Enzyme Fragment Complementation as A Novel Technology for High Throughput Screening,” Comb. Chem. High Throughput Screening 6:381-387 (2003), which is hereby incorporated by reference in its entirety). Briefly, this was performed by first immobilizing (CUG)109 RNA (SEQ ID NO:8) to a 96 well plate. Next, the immobilized RNA was incubated with recombinant MBNL1 fused to the PL enzyme donor peptide (PL-MBNL1, where “PL” is the commercial “ProLabel” enzyme donor peptide) (DiscoveRx PathHunter ProLabel Detection kit) in the presence of varying concentrations of small molecule inhibitor. The Enzyme Acceptor (EA-β-galactosidase) complement was then added, and the activity of the resulting plate—(CUG)109 bound (PL-MBNL1)-(EA-β-galactosidase) activity was monitored via a chemiluminsecent substrate. Only the EA-β-Gal bound to the PL-MBNL1 is capable of performing the luminescent reaction and, as such, any luminescence correlates to the amount of MBNL1 bound to the (CUG)109 immobilized on the plate. Wells lacking (CUG)109 RNA served as a background measure of non-specific luminescence and were subtracted from each experiment to yield a 0% bound value. Wells containing no small molecule inhibitor added served as 100% bound. […]

[2] = biological target: HIV-1 frameshift regulatory RNA sequence (Seq I, SEQ ID NO:1); assay: SPR binding of immobilized dimers to RNA; conditions: read-out: dissociation constant (Kd), affinity to the HIV-1 frameshift regulatory RNA sequence
Protocol: (§1) Graphical analysis of Surface Plasmon Resonance (SPR) data was carried out using DeltaGraph (Rockware Inc.). SPR analysis was conducted on a Reichert SR7000 refractometer using Reichert gold sensor slides that consist of a mixed self-assembled monolayer of thiol-PEG-alcohols and thio-PEG-carboxylic acids (˜9:1; PEG=polyethylene glycol). Amine functionalized small molecules were attached by […]/EDC coupling to the carboxy termini of the surface. After activating the monolayer, molecules were covalently attached through the addition of a 1 mg/mL solution of molecule in a sodium acetate buffer (20 mM, pH=5.5). Unreacted activated esters were quenched through the addition of ethanolamine. […]
To confirm this hypothesis, dissociation constants (Kd) were measured for dimers 1-1 and 1-3 by SPR (FIG. 7A) (Whitney et al., “Templated Ligand Assembly by Using G-quadruplex DNA and Dynamic Covalent Chemistry,” Angew. Chem. Int. Ed. 43:1143-1146 (2004); Lacy et al., “Influence of a Terminal Formamido Group on the Sequence Recognition of DNA by Polyamides,” J. Am. Chem. Soc. 124:2153-2163 (2002); Carrasco et al., “DNA Sequence Recognition by the Indolocarbazole Antitumor Antibiotic AT2433-B1 and Its Diastereoisomer,” Nucleic Acids Res. 30:1774-1781 (2002), each of which is hereby incorporated by reference in its entirety).

[3] = biological target: DNA sequence homologous to I (Seq II, SEQ ID NO:2); assay: SPR binding specificity, Seq II
Protocol: as §1, with “ethanolamine. A flow rate of 10 μL/min and injection volumes of 150 μL was used throughout the experiment. RNA solutions were made to be 15.3 nM, 62.5 nM, 250 nM, 500 nM, 1 μM, 2 μM, 10 μM, and 50 μM.” for “ethanolamine.”
Specificity was assessed by measuring the affinity of 1-1 to three other oligonucleotides: the DNA sequence homologous to I (Seq II, FIG. 7C, SEQ ID NO:2), the alternate RNA stem-loop (Seq III, FIG. 7D, SEQ ID NO:3) (Karan et al., “RNA-Selective Coordination Complexes Identified via Dynamic Combinatorial Chemistry,” J. Am. Chem. Soc. 123:7455-7456 (2001), which is hereby incorporated by reference in its entirety), and an RNA stem loop with an altered loop sequence (Seq IV, FIG. 7E, SEQ ID NO:4).

[4] = biological target: HIV-1 frameshift-inducing RNA stem-loop (SEQ ID NO:1); assay: Fluorescence titration of Cy-3 labeled HIV-1 RNA stem-loop; type: binding; conditions: stem-loop 4 × 10^−7 M, PBS buffer, 25° C.
Protocol: The binding of dicarba analogs to the HIV-1 frameshift-inducing RNA was measured using fluorescence spectroscopy. Fluorescence titrations were performed on a Varian Cary eclipse fluorescence spectrophotometer using 1 cm path-length quartz fluorescence cell. The solution of Cy-3 labeled HIV-1 RNA stem-loop in PBS buffer (400 μL, 400 nM) was taken in the cell and excited with a wavelength of 550 nm. A PMT voltage of 715 V was used for collecting the fluorescence data and the emission spectrum was collected from 555 to 600 nm wavelength range. The ligand solution in PBS buffer was added to the target RNA in the cell in either 2 or 4 μL increments and was allowed to equilibrate for 10 minutes before recording the emission spectrum. Statistical analysis of the data was carried out using Origin 7 (OriginLab corporation). Binding constants were determined by fitting the data to one-site binding model equation.
A 5′-Cy3 labeled upper stem-loop of HIV-1 RNA (SEQ ID NO:1) was titrated with increasing amount of the dicarba analogs in a phosphate buffer (PBS, pH 7.4) using the same protocol to that described in Example 3 above. The fluorescence intensity of the labeled RNA stem-loop decreased as a function of the ligand concentration. […] Normally, one would expect a greater difference between the affinities of the two isomers.
To further evaluate the binding selectivity of dicarba analogs to the frameshift-inducing stem-loop, fluorescence titrations were repeated in the presence of twenty-fold excess concentration of yeast tRNA. […] In an interesting result it was discovered that the monomeric compound (5) also bound to the HIV-1 RNA stem-loop with similar affinity as that of the other analogs, but the binding affinity was diminished in the presence of tRNA. […] Quinoline is a known intercalator of nucleotide bases and has the capability to interact with RNA non-specifically. But it is the peptidic part of the molecule in ligands 5-5 E and 5-5 Z that imparts specificity to the interaction between the ligand and the RNA stem-loop. The peptidic part on monomer 5 is insufficient to impart specificity to the interaction as evident from the results.

## CCc1nc2ccccc2cc1C(=O)N[C@@H](CSSC[C@H](NC(=O)c1cc2ccccc2nc1CC)C(=O)N1CCC[C@H]1C(=O)N[C@@H](Cc1ccccc1)C(=O)NCCCN)C(=O)N1CCC[C@H]1C(=O)N[C@@H](Cc1ccccc1)C(=O)NCCCN [dimer 1-1]
[1]
  Ki, inhibition of the (CUG)n MBNL1 interaction: do not show any inhibitory effect
[2]
  Kd: 1900 nM
[3]
  affinity for sequence II: no measurable affinity
[4]; 8 μM tRNA (twenty-fold excess), read-out: Binding Affinity (Kd) in the presence of excess yeast tRNA
  Kd: 320 ± 70 nM
[4]; fluorescence titration, read-out: Binding Affinity (Kd)
  Kd: 350 ± 110 nM
